Test results from US20260000642A1 (Tay Therapeutics Limited, priority 2022, published 2026).

Columns and labels:
[1] = molecular target: T1, BRD4 BD2 (Homo sapiens, UniProt O60885); experiment: NanoBRET bromodomain assay, NanoLuc-BRD4-BD2 fusion vector in HEK293 cells; type: cell-based; details: for IC50: NanoBRET, HEK293 cells, top concentration 10 μM; for BRD4 BD2% Activity Remaining @ 10 uM: first and second (2) batches; for Fold selectivity: IC50 for BRD4 BD1 divided by IC50 for BRD4 BD2, qualitative if an IC50 is at the upper limit
T1 construct: HEK293 cells were transfected using NanoLuc-BRD4-BD1 or NanoLuc-BRD4-BD2 fusion vectors; host or cells: HEK293
Text: (§1) Bromodomain Assay Procedure

[2] = Sprague-Dawley rat pharmacokinetics (IV and PO); type: in vivo; details: male Sprague-Dawley rats, cassette mode, Method 1; for IV T1/2: IV 1 mg/kg; for PO F (%) / bioavailability: PO 5 mg/kg (IV 1 mg/kg); for bioavailability: rat, plasma, read-out: PO F (%)
Text: BET protein inhibitors with a long half-life and good oral bioavailability in in vivo DMPK parameters are promising oral drug candidates. Some of the exemplary compounds of the current disclosure have a long half-life and good oral bioavailability in in vivo DMPK parameters in the Sprague-Dawley rat following intravenous (IV) and oral (PO) dosing. The experimental methods and results (Table 5) are provided hereinafter.
Sprague-Dawley Rat Pharmacokinetics, Method 1
Compounds were formulated in 5% DMSO, 40% PEG-400, 55% Milli-Q water at a concentration of 0.2 mg/mL for IV and at 0.5 mg/mL for PO. Two male Sprague-Dawley rats per arm were dosed with up to 5 compounds in cassette mode, which each compound being dosed at 1 mg/kg IV and 5 mg/kg PO. Blood was sampled at various timepoints and plasma isolated. 50 μL of plasma with 5 μL of blank Sprague-Dawley rat plasma were added to 200 μL of acetonitrile containing IS mixture. The samples were vortexed for 30 s. After centrifugation at 4 degrees Celsius, 3900 rpm for 15 min, the supernatant was diluted 3 times with water. 20 μL of diluted supernatant was injected into the LC/MS/MS system for quantitative analysis and concentration of analyte determined by comparison with matrix matched standard curve. WinNonlin (Phoenix™, version 8.3) or other similar software may be used for pharmacokinetic calculations.

[3] = Plasma stability assay, rat plasma; type: in vitro ADME; details: 37° C., Method 2 (10 μM)
Protocol: Exemplary compounds of the disclosure are stable upon incubation in mouse plasma. Stability is expressed as a % remaining after 120 minutes. The experimental methods and results (Table 2) are provided hereinafter.
Plasma Stability Assay, Method 1
From stock solution of compound in 10 mM DMSO, a working solution of 1 mM is prepared by diluting the compound in DMSO. To 398 μL of plasma pre-warmed at 37° C. for 15 minutes), 2 μL of working solution of compound is added, resulting in a final concentration of 5 μM (0.5% DMSO) for the compound. The sample is then incubated at 37° C. Aliquot is withdrawn at specified time-points (0, 15, 30, 60 and 120 mins). The reaction is stopped by addition of 450 μL cold acetonitrile containing internal standard (IS). […] Aliquots of the supernatant is analysed using LC-MS/MS. The percent remaining of the compound at each time point is calculated with respect to the control sample (0 min time-point).
Plasma Stability Assay, Method 2
A working solution of compound (500 μM) is prepared in DMSO (100%). To 735 μL of plasma, 15 μL of working solution of compound is added—resulting in a final concentration of 10 μM (2% DMSO) for the compound. The sample is then incubated at 37° C. Aliquot is withdrawn at time-points—0, 15, 30, 60, 90 and 120 mins. The reaction is stopped by using chilled acetonitrile containing internal standard (IS). The samples are centrifuged and the supernatants analyzed using LC-MS/MS. The percent remaining of the compound at each time point is calculated with respect to the control sample (0 min time-point).

[4] = molecular target: T2, BRD4 BD1 (Homo sapiens, UniProt O60885); experiment: NanoBRET bromodomain assay, NanoLuc-BRD4-BD1 fusion vector in HEK293 cells; type: cell-based; details: top concentration 10 μM
T2 construct: HEK293 cells were transfected using NanoLuc-BRD4-BD1 or NanoLuc-BRD4-BD2 fusion vectors; host or cells: HEK293
Text: as §1

CNC(=O)c1[nH]c(C(=O)N[C@@H]2CC[C@@H](O)C2)cc1O[C@@H](C)c1ccccc1 (racemic) [Example 116, N^5-(trans-3-hydroxycyclopentyl)-N^2-methyl-3-((S)-1-phenylethoxy)-1H-pyrrole-2,5-dicarboxamide]
IC50 [1]: 50 to 200 nM

CNC(=O)c1[nH]c(C(=O)NC2CCC2)cc1OC(C)c1ccc(Cl)cc1F (single isomer, unassigned) [Example 35]
IV T1/2 [2]: 30 min
PO F (%) [2]: 65%
Plasma Stability (% remaining at 120 minutes) Rat [3]: 67%

CNC(=O)c1[nH]c(C(=O)NC(C)C)cc1O[C@@H](C)c1ccc(Cl)cc1 [Example 61, (S)-3-(1-(4-chlorophenyl)ethoxy)-N^5-isopropyl-N^2-methyl-1H-pyrrole-2,5-dicarboxamide]
Plasma Stability (% remaining at 120 minutes) Rat [3]: 81%

CNC(=O)c1[nH]c(C(=O)NC2CC2)cc1O[C@@H](C)c1ccc(Cl)cc1 [Example 62, (S)-3-(1-(4-chlorophenyl)ethoxy)-N^5-cyclopropyl-N^2-methyl-1H-pyrrole-2,5-dicarboxamide]
bioavailability [2]: 8%
Plasma Stability (% remaining at 120 minutes) Rat [3]: 82%

CCNC(=O)c1cc(OC(C)c2ccc(Br)cc2)c(C(=O)NC)[nH]1 (single isomer, unassigned) [Example 49, 3-(1-(4-bromophenyl)ethoxy)-N^5-ethyl-N^2-methyl-1H-pyrrole-2,5-dicarboxamide]
Plasma Stability (% remaining at 120 minutes) Rat [3]: 90%

CNC(=O)c1[nH]c(C(=O)NC2CCC2)cc1OC(C)c1ccc(Cl)cc1 (single isomer, unassigned) [Example 27, 3-(1-(4-chlorophenyl)ethoxy)-N^5-cyclobutyl-N^2-methyl-1H-pyrrole-2,5-dicarboxamide]
IV T1/2 [2]: 24 min
PO F (%) [2]: 47%
Plasma Stability (% remaining at 120 minutes) Rat [3]: 47%

CCNC(=O)c1cc(OC(C)c2ccc(I)cc2)c(C(=O)NC)[nH]1 (single isomer, unassigned) [Example 51, N^5-ethyl-3-(1-(4-iodophenyl)ethoxy)-N^2-methyl-1H-pyrrole-2,5-dicarboxamide]
Plasma Stability (% remaining at 120 minutes) Rat [3]: 93%

CNC(=O)c1[nH]c(-c2ncc(C)[nH]2)cc1O[C@@H](C)c1ccccc1F [Example 68, (S)-3-(1-(2-fluorophenyl)ethoxy)-N-methyl-5-(5-methyl-1H-imidazol-2-yl)-1H-pyrrole-2-carboxamide]
Plasma Stability (% remaining at 120 minutes) Rat [3]: 75%

CNC(=O)c1[nH]c(C(=O)NC2CCC2)cc1OC(C)c1ccccc1F (single isomer, unassigned) [Example 43, N^5-cyclobutyl-3-(1-(2-fluorophenyl)ethoxy)-N^2-methyl-1H-pyrrole-2,5-dicarboxamide]
IV T1/2 [2]: 30 min
PO F (%) [2]: 58%
Plasma Stability (% remaining at 120 minutes) Rat [3]: 20%

CNC(=O)c1[nH]c(C(=O)N[C@H]2CC[C@H](O)CC2)cc1OC(C)c1ccccc1F (single isomer, unassigned) [Example 45]
IC50 [4]: ≥ 10 µM
IC50 [1]: 50 to 200 nM
Plasma Stability (% remaining at 120 minutes) Rat [3]: 88%

CNC(=O)c1[nH]c(-c2ncc(C)[nH]2)cc1O[C@H](C)c1ccccc1 [Example 24, (R)—N-methyl-5-(5-methyl-1H-imidazol-2-yl)-3-(1-phenylethoxy)-1H-pyrrole-2-carboxamide]
BRD4 BD2% Activity Remaining @ 10 uM ([1]; listed as 24 (2)): 78%
Fold selectivity [1]: X (Fold >2 and ≤50)
Fold selectivity ([1]; listed as 24 (2)*): — (Fold ≥0 and ≤2)

CNC(=O)c1[nH]c(C(=O)NC2CCC2)cc1OC(C)c1ccc(Cl)cn1 (single isomer, unassigned) [Example 33, 3-(1-(5-chloropyridin-2-yl)ethoxy)-N^5-cyclobutyl-N^2-methyl-1H-pyrrole-2,5-dicarboxamide]
Plasma Stability (% remaining at 120 minutes) Rat [3]: 85%

C#Cc1ccc(C(C)Oc2cc(C(=O)NCC)[nH]c2C(=O)NC)cc1 (single isomer, unassigned) [Example 70, N^5-ethyl-3-(1-(4-ethynylphenyl)ethoxy)-N^2-methyl-1H-pyrrole-2,5-dicarboxamide]
bioavailability [2]: 44%
Plasma Stability (% remaining at 120 minutes) Rat [3]: 92%

CCNC(=O)c1[nH]c(C(=O)NC)c(O[C@@H](C)c2ccccc2F)c1Br [Example 72, (S)-3-bromo-N^2-ethyl-4-(1-(2-fluorophenyl)ethoxy)-N^5-methyl-1H-pyrrole-2,5-dicarboxamide]
Plasma Stability (% remaining at 120 minutes) Rat [3]: 9%

CNC(=O)c1[nH]c(C(=O)NC2CCC2)cc1OC(C)c1ccc(Cl)cc1 (single isomer, unassigned) [Example 28, 3-(1-(4-chlorophenyl)ethoxy)-N^5-cyclobutyl-N^2-methyl-1H-pyrrole-2,5-dicarboxamide]
IC50 [4]: ≥ 10 µM

CCNC(=O)c1cc(OC(C)c2c(F)cccc2F)c(C(=O)NC)[nH]1 (single isomer, unassigned) [Example 55, 3-(1-(2,6-difluorophenyl)ethoxy)-N^5-ethyl-N^2-methyl-1H-pyrrole-2,5-dicarboxamide]
IC50 [4]: ≥ 10 µM
IC50 [1]: > 10000 nM
Plasma Stability (% remaining at 120 minutes) Rat [3]: 88%

CCNC(=O)c1cc(OC(C)c2ccccn2)c(C(=O)NC)[nH]1 (racemic) [Example 96, N^5-ethyl-N^2-methyl-3-(1-(pyridin-2-yl)ethoxy)-1H-pyrrole-2,5-dicarboxamide]
BRD4 BD2% Activity Remaining @ 10 uM ([1]; listed as 96 (2)): 64%
Fold selectivity ([1]; listed as 96(2)*): — (Fold ≥0 and ≤2)

CCNC(=O)c1cc(OC(C)c2c(C)cccc2C)c(C(=O)NC)[nH]1 (single isomer, unassigned) [Example 64, 3-(1-(2,6-dimethylphenyl)ethoxy)-N^5-ethyl-N^2-methyl-1H-pyrrole-2,5-dicarboxamide]
IC50 [4]: ≥ 10 µM

CCNC(=O)c1cc(OC(c2ccccc2)c2ccccc2)c(C(=O)NC)[nH]1 [Example 53, 3-(benzhydryloxy)-N^5-ethyl-N^2-methyl-1H-pyrrole-2,5-dicarboxamide]
Plasma Stability (% remaining at 120 minutes) Rat [3]: 91%

CNC(=O)c1[nH]c(-c2ncc(C)[nH]2)cc1O[C@@H](C)c1ccc(Cl)cc1 [Example 69, (S)-3-(1-(4-chlorophenyl)ethoxy)-N-methyl-5-(5-methyl-1H-imidazol-2-yl)-1H-pyrrole-2-carboxamide]
Plasma Stability (% remaining at 120 minutes) Rat [3]: 83%

CNC(=O)c1[nH]c(C(=O)NC2CC2)cc1O[C@@H](C)c1ccccc1F [Example 59, (S)—N^5-cyclopropyl-3-(1-(2-fluorophenyl)ethoxy)-N^2-methyl-1H-pyrrole-2,5-dicarboxamide]
IV T1/2 [2]: 66 min
PO F (%) [2]: 70%
Plasma Stability (% remaining at 120 minutes) Rat [3]: 50%

CNC(=O)c1[nH]c(C(=O)N[C@H]2CC[C@H](O)CC2)cc1O[C@@H](C)c1ccnnc1 (single isomer, unassigned) [Example 92, N^5-(4-hydroxycyclohexyl)-N^2-methyl-3-(1-(pyridazin-4-yl)ethoxy)-1H-pyrrole-2,5-dicarboxamide]
IC50 [4]: ≥ 10 µM

CNC(=O)c1[nH]c(C(=O)NCC(F)(F)F)cc1O[C@@H](C)c1ccccc1 [Example 54]
Plasma Stability (% remaining at 120 minutes) Rat [3]: 93%

CCNC(=O)c1[nH]c(C(=O)NC)c(O[C@@H](C)c2ccccc2F)c1C [Example 74]
IC50 [4]: ≥ 10 µM
Fold selectivity [1]: X (Fold >2 and ≤50)
IC50 [1]: 1000 to 10000 nM
